Literature values in PubChem BioAssay AID1259409 (Chemical Carcinogenesis Research Information System (CCRIS), 2018).
Several values for one entry are separate records, joined by “and”; a condition that tells them apart may be missing. Equal entries are not always repeated.

System: rodent chemically induced tumor inhibition, incidence and multiplicity
Test: CCRIS tumor inhibitor studies

For `CC(C)=CCC/C(C)=C/COc1c2ccoc2cc2oc(=O)ccc12`, the “tumour outcome (control, treated, inhibition, significance)” value (Carcinogen: 7,12-DIMETHYLBENZ[A]ANTHRACENE, 57-97-6, Dose [Inhibitor]: 0, 400 NMOL ONCE APPLIED 5 MIN PRIOR TO CARCINOGEN DOSE (STUDY DURATION: 25 WK), Route [Inhibitor]: DERMAL, Species: MOUSE, Strain/Sex: SENCAR, Target Tissue: Type of Lesion: SKIN: PAPILLOMA, Dose [Carcinogen]: 10 NMOL ONCE, Promoter: 12-O-TETRADECANOYLPHORBOL-13-ACETATE, 16561-29-8) is given as 96%, 100%, -4%, not significant, the “tumour outcome (control, treated, inhibition, significance)” value (Carcinogen: 7-12-DIMETHYLBENZ[A]ANTHRACENE, 57-97-6, Dose [Inhibitor]: 0, 800 NMOL ONCE APPLIED 5 MIN PRIOR TO CARCINOGEN DOSE (STUDY DURATION: 25 WK), Route [Inhibitor]: DERMAL, Species: MOUSE, Strain/Sex: SENCAR, Target Tissue: Type of Lesion: SKIN: PAPILLOMA, Dose [Carcinogen]: 10 NMOL ONCE, Promoter: 12-O-TETRADECANOYLPHORBOL-13-ACETATE, 16561-29-8) is given as 96%, 100%, -4%, not significant and 93%, 96%, -3%, not significant and the “tumour outcome (control, treated, inhibition, significance)” value (Carcinogen: BENZO[A]PYRENE, 50-32-8, Dose [Inhibitor]: 0, 20 NMOL ONCE APPLIED 5 MIN PRIOR TO CARCINOGEN DOSE (STUDY DURATION: 25 WK), Route [Inhibitor]: DERMAL, Species: MOUSE, Strain/Sex: SENCAR, Target Tissue: Type of Lesion: SKIN: PAPILLOMA, Dose [Carcinogen]: 200 NMOL ONCE, Promoter: 12-O-TETRADECANOYLPHORBOL-13-ACETATE, 16561-29-8) is given as 91%, 100%, -10%, not significant. The “tumour outcome (control, treated, inhibition, significance)” value (Carcinogen: BENZO[A]PYRENE, 50-32-8, Dose [Inhibitor]: 0, 100 NMOL ONCE APPLIED 5 MIN PRIOR TO CARCINOGEN DOSE (STUDY DURATION: 25 WK), Route [Inhibitor]: DERMAL, Species: MOUSE, Strain/Sex: SENCAR, Target Tissue: Type of Lesion: SKIN: PAPILLOMA, Dose [Carcinogen]: 200 NMOL ONCE, Promoter: 12-O-TETRADECANOYLPHORBOL-13-ACETATE, 16561-29-8) was 91%, 87%, 4%, not significant, the “tumour outcome (control, treated, inhibition, significance)” value (Carcinogen: BENZO[A]PYRENE, 50-32-8, Dose [Inhibitor]: 0, 400 NMOL ONCE APPLIED 5 MIN PRIOR TO CARCINOGEN DOSE (STUDY DURATION: 25 WK), Route [Inhibitor]: DERMAL, Species: MOUSE, Strain/Sex: SENCAR, Target Tissue: Type of Lesion: SKIN: PAPILLOMA, Dose [Carcinogen]: 200 NMOL ONCE, Promoter: 12-O-TETRADECANOYLPHORBOL-13-ACETATE, 16561-29-8) was 91%, 92%, -1%, not significant and the “tumour outcome (control, treated, inhibition, significance)” value (Carcinogen: BENZO[A]PYRENE, 50-32-8, Dose [Inhibitor]: 0, 800 NMOL ONCE APPLIED 5 MIN PRIOR TO CARCINOGEN DOSE (STUDY DURATION: 25 WK), Route [Inhibitor]: DERMAL, Species: MOUSE, Strain/Sex: SENCAR, Target Tissue: Type of Lesion: SKIN: PAPILLOMA, Dose [Carcinogen]: 200 NMOL ONCE, Promoter: 12-O-TETRADECANOYLPHORBOL-13-ACETATE, 16561-29-8) was 91%, 82%, 10%, not significant.

For `O=C(c1ccc(OCCN2CCCCC2)cc1)c1c(-c2ccc(O)cc2)sc2cc(O)ccc12`, the “tumour outcome (control, treated, inhibition, significance)” value (Carcinogen: 7,12-DIMETHYLBENZ[A]ANTHRACENE (DMBA) [57-97-6], Dose [Inhibitor]: 50 MG/KG/D FOR 37 WK (STUDY DURATION: 37 WK), Route [Inhibitor]: ORAL GAVAGE, Species: MOUSE, Strain/Sex: SENCAR/FEMALE, Target Tissue: Type of Lesion: MAMMARY: CARCINOMA, Dose [Carcinogen]: 20 UG/D FOR 6 WKS (STUDY DURATION: 37 WKS), Promoter: MEDROXYPROGESTERONE ACETATE (71-58-9)) is given as 10/21 (48%); 5/17 (29%), 40%, p=0.20, the “tumour outcome (control, treated, inhibition, significance)” value (Carcinogen: ESTRADIOL, 50-28-2, Dose [Inhibitor]: 0, 25 MG PELLET 2 PELLETS IMPLANTED EVERY 3 MO BEGINNING 15 D PRIOR TO CARCINOGEN DOSE (STUDY DURATION: 8 MO), Route [Inhibitor]: SUBCUTANEOUS IMPLANT, Species: HAMSTER, Strain/Sex: SYRIAN/MALE, Target Tissue: Type of Lesion: KIDNEY: TUMOR, Dose [Carcinogen]: 25 MG PELLET IMPLANTED EVERY 3 MO, Promoter: NONE USED) is given as 5/5 (100%), 3/4 (75%), 25%, not significant and the “tumour outcome (control, treated, inhibition, significance)” value (Carcinogen: N-METHYL-N-NITROSOUREA, 684-93-5, Dose [Inhibitor]: 0, 5 MG/KG BW/D 2/WK TO DORSAL AREA STARTING 10 D BEFORE CARCINOGEN TREATMENT FOR THE DURATION OF THE STUDY (STUDY DURAT, Route [Inhibitor]: SUBCUTANEOUSLY, Species: RAT, Strain/Sex: SPRAGUE-DAWLEY/FEMALE, Target Tissue: Type of Lesion: MAMMARY GLAND: TUMOR, Dose [Carcinogen]: 50 MG/KG BW 2/WK FOR 1 WK BW 43-54 POSTNATAL DAYS) is given as 80%, 26%, 67%, p<0.001. The “tumour outcome (control, treated, inhibition, significance)” value (Carcinogen: N-METHYL-N-NITROSOUREA, 684-93-5, Dose [Inhibitor]: 0, 20 MG/KG OF DIET FOR DURATION OF STUDY BEGINNING 1 WK POST CARCINOGEN DOSE (STUDY DURATION: 5 MO), Route [Inhibitor]: ORAL, Species: RAT, Strain/Sex: SPRAGUE-DAWLEY/FEMALE, Target Tissue: Type of Lesion: MAMMARY GLAND: TUMOR, Dose [Carcinogen]: 50 MG/KG BW ONCE, Promoter: NONE USED) was 23/24 (96%), 10/12 (83%), 14%, p=0.26 and 29/30 (97%), 14/30 (47%), 52%, p=0.0001 and the “tumour outcome (control, treated, inhibition, significance)” value (Carcinogen: N-METHYL-N-NITROSOUREA, 684-93-5, Dose [Inhibitor]: 0, 60 MG/KG OF DIET FOR DURATION OF STUDY BEGINNING 1 WK POST CARCINOGEN DOSE (STUDY DURATION: 5 MO), Route [Inhibitor]: ORAL, Species: RAT, Strain/Sex: SPRAGUE-DAWLEY/FEMALE, Target Tissue: Type of Lesion: MAMMARY GLAND: TUMOR, Dose [Carcinogen]: 50 MG/KG BW ONCE, Promoter: NONE USED) was 23/24 (96%), 8/12 (67%), 30%, p=0.03 and 29/30 (97%), 15/30 (50%), 48%, p=0.0002.

For `Cc1cc(NC(=O)[C@H](CCCN=C(N)N)NC(=O)[C@H](CO)NC(=O)[C@H](Cc2ccccc2)NC(=O)OC(C)(C)C)cc2oc(=O)ccc12`, the “tumour outcome (control, treated, inhibition, significance)” value (Carcinogen: 1,2-DIMETHYLHYDRAZINE, 540-73-8, Dose [Inhibitor]: 0, 2429 UG/G IN DIET FOR 32 WK BEGINNING AT 24 D OF AGE (STUDY DURATION: 32 WK), Route [Inhibitor]: ORAL, Species: RAT, Strain/Sex: SPRAGUE-DAWLEY/MALE, Target Tissue: Type of Lesion: COLON: ADENOCARCINOMA, Dose [Carcinogen]: 20 MG/KG 1/WK FOR 15 WK BEGINNING ON D 37, Promoter: NONE USED) is given as 19/22 (86%), 11/16 (69%), 20%, not calculated and the “tumour outcome (control, treated, inhibition, significance)” value (Carcinogen: 1,2-DIMETHYLHYDRAZINE, 540-73-8, Dose [Inhibitor]: 0, 2429 UG/G IN DIET FOR 32 WK BEGINNING AT 24 D OF AGE (STUDY DURATION: 32 WK), Route [Inhibitor]: ORAL, Species: RAT, Strain/Sex: SPRAGUE-DAWLEY/MALE, Target Tissue: Type of Lesion: SMALL INTESTINE: ADENOCARCINOMA, Dose [Carcinogen]: 20 MG/KG 1/WK FOR 15 WK BEGINNING ON D 37, Promoter: NONE USED) is given as 18/22 (82%), 10/16 (63%), 23%, not calculated.
